IC50 and inhibition data for 37 molecules are collected here from the COVID Moonshot data (paper PMC11187573), “Identification of SARS-CoV-2 Mpro inhibitors through deep reinforcement learning for de novo drug design and computational chemistry approaches” (RSC Medicinal Chemistry, 2024).

Each structure is given as a SMILES string.

For assay [1], the target named is SARS-CoV-2 Main Protease (SARS-CoV-2) (UniProt P0DTD1).
For assay [2] the target is unchanged. The source holds these as a separate data set.

As to `Cc1ccncc1NC(=O)Cc1cc(C#N)cc(OC2CC(=O)N2)c1` (stereo not given), the IC50 (commonly the point on the concentration scale where inhibition reaches its midpoint) in assay [1] came out at 8.63 µM.

`COc1cccc2[nH]c(=O)cc(C(=O)N3CCN(c4cccc(Cl)c4)CC3)c12`: the concentration for half-maximal inhibition (IC50) in assay [1] worked out at 1.84 µM.

In turn, `O=C(Nc1cncc2ccccc12)C1(CCC2CC2)CCOc2ccc(Cl)cc21` (stereo not given) returned a 50% inhibitory concentration (IC50) in assay [1] of 93.9 µM.

`Cc1ccc(N(Cc2cscn2)C(=O)Cc2cncc3ccccc23)cc1` registered an IC50 in assay [1] of 13.6 µM.

Consider `O=C(Cc1cccc(Cl)c1)Nc1cncc2nc[nH]c12`, for which the IC50 in assay [1] worked out at 7.97 µM. The inhibition (as a rule, the change of the read-out against control, counted positive when it falls) in assay [1] (50.0 µM) came out at 79.5%.

Take `CC12CCCC(O1)c1c(cc3c(c1O)C(=O)c1c(O)cc(O)cc1C3=O)O2` (stereo not given): in assay [1] (50.0 µM), the inhibition was found to be 26.4%.

The molecule `Cc1ccncc1NC(=O)Cc1cc(Cl)cc(S(N)(=O)=O)c1` returned a half-maximal inhibitory concentration (IC50) in assay [1] of 13.1 µM. Moreover, the inhibition in assay [1] (50.0 µM) came to 64%.

Turning to `Cc1ccncc1NC(=O)Cc1cc(Cl)cc(NC2CCC(F)(F)C2O)c1` (stereo not given), the IC50 in assay [1] turned out to be 25.7 µM.

On to `CC(=O)N1CCN(Cc2cccs2)CC1`, for which the inhibition in assay [1] (20.0 µM) came to 96.7%; in assay [1] (50.0 µM), 95.7%.

Consider `O=C(Nc1n[nH]c2ccnc(Br)c12)C1CCOc2ccc(Cl)cc21` (stereo not given), for which the 50% inhibitory concentration (IC50) in assay [1] is 74.2 µM. This lies in the double-digit micromolar range.

On to `Cc1cc(O)c2c(c1)C1(O)CC(C2=O)C2=C1C(=O)c1c(O)cccc1C2=O` (stereo not given), for which, in assay [1], the 50% inhibitory concentration (IC50) was 58.2 µM. Moreover, the inhibition in assay [1] (50.0 µM) was 81.1%.

In turn, `O=C(NCC1(C(=O)Nc2cncc3ccccc23)CCOc2ccc(Cl)cc21)C1COCCN1CC(F)(F)F` (stereo not given) showed an IC50 in assay [2] of 21.6 µM.

With `CC(NC(=O)COc1ccc(C(N)=O)cc1)(C(=O)Nc1cncc2ccccc12)c1ccc(Cl)c(Cl)c1` (stereo not given), the IC50 in assay [2] worked out at 12.3 µM.

In the case of `CC(C)Cn1cc(NC(=O)NC2CCCc3ccccc32)c2ccccc2c1=O` (stereo not given), the inhibition in assay [2] (20.0 µM) turned out to be 26.4%; in assay [2] (50.0 µM), 12.2%.

As for `COc1ccc(NC(=O)c2ccc(C(=N)N(C)C)cc2)c(C(=O)Nc2ccc(Cl)cn2)c1`, the inhibition was -17.3% in assay [2] (20.0 µM) and -3.35% in assay [2] (50.0 µM).

As for `COc1ncc(Br)cc1Nc1cc(Cl)cc(CC(=O)Nc2cncc3ccccc23)c1`, the 50% inhibitory concentration (IC50) in assay [2] was found to be 0.681 µM.

Regarding `CC1(C)CN(C(=O)c2ccc(-c3cccc4nc(NC(=O)C5CC5)nn34)cc2)C1`, the inhibition was -1.13% in assay [2] (20.0 µM) and 0.838% in assay [2] (50.0 µM).

As to `COC(=O)c1sccc1NC(=O)Nc1cn(CC(C)C)c(=O)c2ccccc12`, the inhibition is -3.98% in assay [2] (20.0 µM) and -0.958% in assay [2] (50.0 µM).

In the case of `COc1ccc2nc(NC(=O)Nc3cn(CC(C)C)c(=O)c4ccccc34)sc2c1`, the inhibition came to 21.3% in assay [2] (20.0 µM) and 17.6% in assay [2] (50.0 µM).

Take `O=C(N[C@@H](Cc1cc(=O)[nH]c2ccccc12)C(=O)O)c1ccc(Cl)cc1` (stereo in doubt): the inhibition in assay [2] (20.0 µM) is 1.24%; in assay [2] (50.0 µM), -22.3%.

In the case of `COc1ccc(N2C(=O)CCS2(=O)=O)cc1S(=O)(=O)Nc1cccc2cccnc12`, the inhibition in assay [2] (20.0 µM) was found to be 65.3%; in assay [2] (50.0 µM), 37.4%.

As for `CC(=O)c1cccc(NC(=O)Nc2cn(C)c(=O)c3ccccc23)c1`, the inhibition in assay [2] (20.0 µM) came out at 22.4%; in assay [2] (50.0 µM), 11.9%.

For `COc1cc2c(cc1OC)C(C)N(C(=O)Nc1cn(C)c(=O)c3ccccc13)CC2` (stereo not given), the values for the inhibition in assay [2] (20.0 µM) and in assay [2] (50.0 µM) were 51.2% and 5.23%, respectively.

In the case of `CC(C)Cn1cc(NC(=O)Nc2nc3ccccc3s2)c2ccccc2c1=O`, the inhibition turned out to be 3.79% in assay [2] (20.0 µM) and 12.2% in assay [2] (50.0 µM).

`Nc1n[nH]c2cc(O)nc(O)c12`: the results for the inhibition in assay [2] (20.0 µM) and in assay [2] (50.0 µM) were 6.14% and 30.9%, respectively.

Molecule `O=C(CC1(C(=O)Nc2cncc3ccccc23)CCOc2ccc(Cl)cc21)N1CCOCC1CC(F)F` (stereo not given) yielded a half-inhibitory concentration (IC50) in assay [2] of 9.84 µM. In other words, the single-digit micromolar range.

`O=C(Nc1cncc2ccccc12)[C@H]1COc2ccc(Cl)cc21` (stereo in doubt): the IC50 in assay [2] was 26.9 µM.

`COc1cc(Cl)c(C)cc1NC(=O)Nc1cn(CC(C)C)c(=O)c2ccccc12`: the inhibition worked out at 5.7% in assay [2] (20.0 µM) and 9.03% in assay [2] (50.0 µM).

For the molecule `CC(C)Cn1cc(NC(=O)N2CCC(Cc3ccccc3)CC2)c2ccccc2c1=O`, the results for the inhibition in assay [2] (20.0 µM) and in assay [2] (50.0 µM) were -4.27% and 3.43%, respectively.

Consider `CC1CN(C)CCN1C(=O)CC1(C(=O)Nc2cncc3ccccc23)CCOc2ccc(Cl)cc21` (stereo not given), for which the IC50 in assay [2] is 6.18 µM. This counts as single-digit micromolar.

For the molecule `O=C1CCCCC(C(=O)Nc2ccc(-c3nc[nH]n3)cc2F)N1` (stereo not given), the inhibition is -4.07% in assay [2] (20.0 µM) and -3.07% in assay [2] (50.0 µM).

For `CC(C)Cn1cc(NC(=O)NCCc2c[nH]c3ccccc23)c2ccccc2c1=O`, the inhibition worked out at 1.66% in assay [2] (20.0 µM) and 6.69% in assay [2] (50.0 µM).

On to `CN(Cc1cccc2ccccc12)c1cc(Cl)cc(CC(=O)Nc2cncc3ccccc23)c1`, for which, in assay [2], the half-inhibitory concentration (IC50) amounted to 1.73 µM.

`COc1ccc(OC)c(CNC(=O)Nc2cn(CC(C)C)c(=O)c3ccccc23)c1`: the inhibition in assay [2] (20.0 µM) came to 18.5%; in assay [2] (50.0 µM) it was 0.63%.

For `CC(C)CCC(=O)C[C@H]1c2ccccc2C(=O)N1c1ccc2ccc(Cl)nc2n1` (stereo in doubt), the inhibition in assay [2] (20.0 µM) was 4.26%; in assay [2] (50.0 µM), -0.676%.

Regarding `COC(=O)C(c1ccccc1Cl)N1CCC(S)/C(=C/C(=O)O)C1` (stereo not given), the inhibition is -2.05% in assay [2] (20.0 µM) and 1.77% in assay [2] (50.0 µM).

Regarding `O=C(Nc1c[nH]nc1-c1ccccn1)c1cccc2nccn12`, the inhibition in assay [2] (20.0 µM) came to 2.59%; in assay [2] (50.0 µM) it was 9.01%.
